Measurements as given in ChEMBL document CHEMBL4765389, “Antimicrobial and anti-inflammatory activities of short dodecapeptides derived from duck cathelicidin: Plausible mechanism of bactericidal action and endotoxin neutralization” (Eur J Med Chem, 2020).
The source made the active and inactive calls. No cut-off for these calls is given here.

Tests used:
[1] = Cytotoxicity against mouse NIH/3T3 cells assessed as reduction in cell viability at 20 uM incubated for 24 hrs by MTT assay; assay type: cell-based, NIH3T3; conditions: NIH/3T3 cells, read-out: INH
Staphylococcus aureus [2] = experiment: Antibacterial activity against Staphylococcus aureus KCTC 1621 assessed as reduction in bacterial growth incubated for 24 hrs by CLSI based broth dilution method; assay type: functional; conditions: read-out: MIC100
[3] = test system: Staphylococcus epidermidis; experiment: Antibacterial activity against Staphylococcus epidermidis KCTC 1917 assessed as reduction in bacterial growth incubated for 24 hrs by CLSI based broth dilution method; assay type: functional; conditions: read-out: MIC100
Staphylococcus aureus [4] = experiment: Antibacterial activity against methicillin-resistant Staphylococcus aureus CCARM 3090 assessed as reduction in bacterial growth incubated for 24 hrs by CLSI based broth dilution method; assay type: functional; conditions: read-out: MIC100
Staphylococcus aureus [5] = experiment: Antibacterial activity against methicillin-resistant Staphylococcus aureus CCARM 3095 assessed as reduction in bacterial growth incubated for 24 hrs by CLSI based broth dilution method; assay type: functional; conditions: read-out: MIC100
Enterococcus faecium = experiment: Antibacterial activity against vancomycin-resistant Enterococcus faecium ATCC 51559 assessed as reduction in bacterial growth incubated for 24 hrs by CLSI based broth dilution method; assay type: functional; conditions: read-out: MIC100
Escherichia coli [6] = experiment: Antibacterial activity against Escherichia coli KCTC 1682 assessed as reduction in bacterial growth incubated for 24 hrs by CLSI based broth dilution method; assay type: functional; conditions: read-out: MIC100
Salmonella typhimurium = experiment: Antibacterial activity against Salmonella typhimurium KCTC 1926 assessed as reduction in bacterial growth incubated for 24 hrs by CLSI based broth dilution method; assay type: functional, Salmonella enterica subsp. enterica serovar Typhimurium; conditions: Salmonella enterica, read-out: MIC100
[7] = Antibacterial activity against multidrug-resistant Pseudomonas aeruginosa CCARM 2095 assessed as reduction in bacterial growth incubated for 24 hrs by CLSI based broth dilution method; assay type: functional; conditions: read-out: MIC100
[8] = Antibacterial activity against multidrug-resistant Pseudomonas aeruginosa CCARM 2109 assessed as reduction in bacterial growth incubated for 24 hrs by CLSI based broth dilution method; assay type: functional; conditions: read-out: MIC100
Candida albicans = experiment: Antifungal activity against Candida albicans KCTC 7965 assessed as reduction in fungal growth incubated for 24 hrs by CLSI based broth dilution method; assay type: functional; conditions: read-out: MIC100
Erythrocyte = experiment: Hemolytic activity in sheep RBC assessed as reduction in hemoglobin incubated for 1 hr; assay type: ADME, cell-based, Ovis aries
Bacteria = experiment: Antibacterial activity against Gram positive bacteria assessed as reduction in bacterial growth incubated for 24 hrs by CLSI based broth dilution method; assay type: functional; conditions: read-out: MIC100
Saccharomyces cerevisiae = experiment: Antifungal activity against yeast assessed as reduction in fungal growth incubated for 24 hrs by CLSI based broth dilution method; assay type: functional; conditions: read-out: MIC100
[9] = Therapeutic index, ratio of HC10 for sheep RBC to geometric mean MIC for gram positive bacteria; assay type: toxicity; conditions: sheep red blood cells, read-out: TI
[10] = Therapeutic index, ratio of HC10 for sheep RBC to geometric mean MIC for yeast; assay type: toxicity; conditions: sheep red blood cells, read-out: TI
RAW264.7 [11] = experiment: Antiinflammatory activity against mouse RAW264.7 cells assessed as reduction in LPS-induced iNOS mRNA expression at 5 uM incubated for 6 hrs by qRT-PCR analysis; assay type: functional, cell-based
Escherichia coli [12] = experiment: Antibacterial activity against Escherichia coli KCTC 1682 assessed as reduction in bacterial growth incubated for 24 hrs in presence of 150 mM NaCl by CLSI based broth dilution method; assay type: functional; conditions: read-out: MIC100
Escherichia coli [13] = experiment: Antibacterial activity against Escherichia coli KCTC 1682 assessed as reduction in bacterial growth incubated for 24 hrs in presence of 6 uM NH4Cl by CLSI based broth dilution method; assay type: functional; conditions: read-out: MIC100
Escherichia coli [14] = experiment: Antibacterial activity against Escherichia coli KCTC 1682 assessed as reduction in bacterial growth incubated for 24 hrs in presence of 1 mM MgCl2 by CLSI based broth dilution method; assay type: functional; conditions: read-out: MIC100
Escherichia coli [15] = experiment: Antibacterial activity against Escherichia coli KCTC 1682 assessed as reduction in bacterial growth incubated for 24 hrs in presence of 4 uM FeCl3 by CLSI based broth dilution method; assay type: functional; conditions: read-out: MIC100
Escherichia coli [16] = experiment: Antibacterial activity against Escherichia coli KCTC 1682 assessed as reduction in bacterial growth incubated for 24 hrs in presence of 20 % serum by CLSI based broth dilution method; assay type: functional; conditions: read-out: MIC100
Staphylococcus aureus [17] = experiment: Antibacterial activity against Staphylococcus aureus KCTC 1621 assessed as reduction in bacterial growth incubated for 24 hrs in presence of 150 mM NaCl by CLSI based broth dilution method; assay type: functional; conditions: read-out: MIC100
Staphylococcus aureus [18] = experiment: Antibacterial activity against Staphylococcus aureus KCTC 1621 assessed as reduction in bacterial growth incubated for 24 hrs in presence of 2.5 mM CaCl2 by CLSI based broth dilution method; assay type: functional; conditions: read-out: MIC100
Staphylococcus aureus [19] = experiment: Antibacterial activity against Staphylococcus aureus KCTC 1621 assessed as reduction in bacterial growth incubated for 24 hrs in presence of 4 uM FeCl3 by CLSI based broth dilution method; assay type: functional; conditions: read-out: MIC100
Staphylococcus aureus [20] = experiment: Antibacterial activity against methicillin-resistant Staphylococcus aureus CCARM 3090 assessed as reduction in bacterial growth incubated for 24 hrs in presence of ciprofloxacin by CLSI based broth dilution method; assay type: functional; conditions: read-out: MIC100
Staphylococcus aureus [21] = experiment: Antibacterial activity against methicillin-resistant Staphylococcus aureus CCARM 3090 assessed as fractional inhibitory concentration incubated for 24 hrs in presence of chloramphenicol by CLSI based broth dilution method; assay type: functional
Staphylococcus aureus [22] = experiment: Antibacterial activity against methicillin-resistant Staphylococcus aureus CCARM 3090 assessed as fractional inhibitory concentration index incubated for 24 hrs in presence of chloramphenicol by CLSI based broth dilution method; assay type: functional
Staphylococcus aureus [23] = experiment: Antibacterial activity against methicillin-resistant Staphylococcus aureus CCARM 3090 assessed as fractional inhibitory concentration index incubated for 24 hrs in presence of oxacillin by CLSI based broth dilution method; assay type: functional
[24] = Antibacterial activity against multidrug-resistant Pseudomonas aeruginosa CCARM 2095 assessed as reduction in bacterial growth incubated for 24 hrs in presence of ciprofloxacin by CLSI based broth dilution method; assay type: functional; conditions: read-out: MIC100
[25] = Antibacterial activity against multidrug-resistant Pseudomonas aeruginosa CCARM 2095 assessed as fractional inhibitory concentration index incubated for 24 hrs in presence of oxacillin by CLSI based broth dilution method; assay type: functional
Escherichia coli [26] = experiment: Bactericidal activity against Escherichia coli KCTC 1682 assessed as reduction in colony forming unit at MIC measured at 3 hrs by time kill assay; assay type: functional
Cell membrane [27] = experiment: Induction of cell membrane permeability in Staphylococcus aureus KCTC 1621 assessed as cytoplasmic membrane depolarization at 16 uM by DiSC3-5 dye based spectrofluorometry; assay type: subcellular
Cell membrane [28] = experiment: Induction of cell membrane permeability in Escherichia coli KCTC 1682 assessed as […] at 16 uM by ONPG dye based spectrophotometry; assay type: subcellular
DNA = experiment: Binding affinity to Escherichia coli pBR322 DNA assessed as increase in DNA retardation at 8 uM incubated for 1 hr by agarose gel electrophoresis relative to control; assay type: nucleic-acid assay
Lipopolysaccharide (LPS) = experiment: Inhibition of Escherichia coli O111:B4 LPS aggregation assessed as increase in FITC-LPS dissociation by spectrofluorometry
RAW264.7 [29] = experiment: Antiinflammatory activity in mouse RAW264.7 cells assessed as neutralization of LPS binding by measuring LPS-FITC aggregation at 10 uM pretreated with LPS for 1 hr followed by compound addition and measured after 1 hr by flowcytometry analysis (reference value: 48.12 %); assay type: functional

Substance | cytotoxicity at 24 h, 20 µM [1] | MIC (Staphylococcus aureus [2]) | MIC [3] | MIC (Staphylococcus aureus [4]) | MIC (Staphylococcus aureus [5]) | MIC (Enterococcus faecium) | MIC (Escherichia coli [6]) | MIC (Salmonella typhimurium) | MIC [7] | MIC [8] | MIC (Candida albicans) | HC10 (Erythrocyte) | MIC (Bacteria) | MIC (Saccharomyces cerevisiae) | selectivity ratio [9] | selectivity ratio [10] | inhibition (RAW264.7 [11]) | MIC (Escherichia coli [12]) | MIC (Escherichia coli [13]) | MIC (Escherichia coli [14]) | other results
H-LWKKIYRKWKRW-NH2 | < 10% | 2 µM | 4 µM | 8 µM | 8 µM | 8 µM | 4 µM | 2 µM | 8 µM | 4 µM | 8 µM | > 256 µM | 6.8 µM | 6 µM | 753 | 853 | Active | 4 µM | 2 µM | 4 µM | MIC (Escherichia coli [15]): 8 µM; MIC (Escherichia coli [16]): 8 µM; MIC (Staphylococcus aureus [17]): 2 µM; MIC (Staphylococcus aureus [18]): 4 µM; MIC (Staphylococcus aureus [19]): 8 µM; MIC (Staphylococcus aureus [20]): 64 µM; FIC (Staphylococcus aureus [21]): 0.25; fractional inhibitory concentration index (FICI) (Staphylococcus aureus [22]): 0.5; fractional inhibitory concentration index (FICI) (Staphylococcus aureus [23]): 0.375; MIC [24]: 64 µM; fractional inhibitory concentration index (FICI) [25]: 0.375; Activity (Escherichia coli [26]): <2 log10CFU/ml; Activity (Cell membrane [27]): inactive; Activity (Cell membrane [28]): inactive; Activity (DNA): 100%; inhibition (Lipopolysaccharide (LPS)): Dose-dependent effect; Activity (RAW264.7 [29]): 15.47%
H-LIKKIYRKWKRW-NH2 | < 10% | 4 µM | 4 µM | 8 µM | 8 µM | 8 µM | 8 µM | 2 µM | 8 µM | 8 µM | 8 µM | > 256 µM | 7.1 µM | 6 µM | 71.1 | 853 | Active | 4 µM | 2 µM | 8 µM | MIC (Escherichia coli [15]): 8 µM; MIC (Escherichia coli [16]): 8 µM; MIC (Staphylococcus aureus [17]): 8 µM; MIC (Staphylococcus aureus [18]): 4 µM; MIC (Staphylococcus aureus [19]): 8 µM; MIC (Staphylococcus aureus [20]): 128 µM; FIC (Staphylococcus aureus [21]): 0.25; fractional inhibitory concentration index (FICI) (Staphylococcus aureus [22]): 0.5; fractional inhibitory concentration index (FICI) (Staphylococcus aureus [23]): 0.375; MIC [24]: 64 µM; fractional inhibitory concentration index (FICI) [25]: 0.375; Activity (Escherichia coli [26]): <2 log10CFU/ml; Activity (Cell membrane [27]): inactive; Activity (Cell membrane [28]): inactive; Activity (DNA): 100%; inhibition (Lipopolysaccharide (LPS)): Dose-dependent effect; Activity (RAW264.7 [29]): 24.41%
